# Measurements published in ChEMBL document CHEMBL1201862, “PubChem BioAssay data set” (2004).
#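 Exposure lasted 48 hours, with cells grown in 96-well plates and compounds tested at five concentrations. Abbreviation: GI50, concentration required for 50% inhibition of growth.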 The source made the active and inactive calls. No stated cut-off is given here; in the data, active = GI50 up to about 1.1 µM and inactive = higher.
# What was measured:
# Experiment in all cases: growth of human tumour cells (NCI), 48 h
# OVCAR-4 = tested on: OVCAR-4
# OVCAR-8 = tested on: OVCAR-8
# CCRF-CEM = tested on: CCRF-CEM
# 786-0 = tested on: 786-0
# RXF 631 = tested on: RXF 631
# UACC-257 = tested on: UACC-257
# SR = tested on: SR
# ACHN = tested on: ACHN
# HOP-92 = tested on: HOP-92
# M19-MEL = tested on: M19-MEL
# NCI-H226 = tested on: NCI-H226
# UACC-62 = tested on: UACC-62
# LOX IMVI = tested on: LOX IMVI
# MOLT-4 = tested on: MOLT-4
# SK-MEL-2 = tested on: SK-MEL-2
# SF-539 = tested on: SF-539
# LXFL 529 = tested on: LXFL 529
# HL-60 = tested on: HL-60
# NCI-H23 = tested on: NCI-H23
# SNB-78 = tested on: SNB-78
# U-251 = tested on: U-251
# CAKI-1 = tested on: CAKI-1
# OVCAR-3 = tested on: OVCAR-3
# SF-295 = tested on: SF-295
# NCI-H522 = tested on: NCI-H522
# KM-20L2 = tested on: KM-20L2
# SW-620 = tested on: SW-620
# HOP-62 = tested on: HOP-62
# K562 = tested on: K562
# UO-31 = tested on: UO-31
# SNB-19 = tested on: SNB-19
# SNB-75 = tested on: SNB-75
# SN12C = tested on: SN12C
# M14 = tested on: M14
# COLO 205 = tested on: COLO 205
# HOP-18 = tested on: HOP-18
# DMS-114 = tested on: DMS-114
# DLD-1 = tested on: DLD-1
# HCT-15 = tested on: HCT-15
# TK-10 = tested on: TK-10
# OVCAR-5 = tested on: OVCAR-5
# SK-MEL-28 = tested on: SK-MEL-28
# Malme-3M = tested on: Malme-3M
# IGROV-1 = tested on: IGROV-1
# HT-29 = tested on: HT-29
# A498 = tested on: A498
# RPMI-8226 = tested on: RPMI-8226
# SF-268 = tested on: SF-268
# HCT-116 = tested on: HCT-116
# SK-MEL-5 = tested on: SK-MEL-5
# NCI-H460 = tested on: NCI-H460
# SK-OV-3 = tested on: SK-OV-3
# A549 = tested on: A549
# KM12 = tested on: KM12
compound,measurement,setting,value
CCN(CC)CCNc1ccc2nnn3c4ccc(OC)cc4c(=O)c1c23,GI50,OVCAR-4,6.46 µM (inactive)
same,GI50,OVCAR-8,4.31 µM (inactive)
same,GI50,CCRF-CEM,3.52 µM (inactive)
same,GI50,786-0,4.31 µM (inactive)
same,GI50,RXF 631,3.83 µM (inactive)
same,GI50,UACC-257,12.5 µM (inactive)
same,GI50,SR,1.59 µM (inactive)
same,GI50,ACHN,4.71 µM (inactive)
same,GI50,HOP-92,6.07 µM (inactive)
same,GI50,M19-MEL,13.5 µM (inactive)
same,GI50,NCI-H226,6.3 µM (inactive)
same,GI50,UACC-62,12.9 µM (inactive)
same,GI50,LOX IMVI,2.22 µM (inactive)
same,GI50,MOLT-4,1.93 µM (inactive)
same,GI50,SK-MEL-2,14.2 µM (inactive)
same,GI50,SF-539,3.04 µM (inactive)
same,GI50,LXFL 529,9.62 µM (inactive)
same,GI50,HL-60,3.94 µM (inactive)
same,GI50,NCI-H23,8.49 µM (inactive)
same,GI50,SNB-78,10.7 µM (inactive)
same,GI50,U-251,10.4 µM (inactive)
same,GI50,CAKI-1,12.2 µM (inactive)
same,GI50,OVCAR-3,13.5 µM (inactive)
same,GI50,SF-295,5.14 µM (inactive)
same,GI50,NCI-H522,6.7 µM (inactive)
same,GI50,KM-20L2,5.27 µM (inactive)
same,GI50,SW-620,3.58 µM (inactive)
same,GI50,HOP-62,11.1 µM (inactive)
same,GI50,K562,3.78 µM (inactive)
same,GI50,UO-31,10 µM (inactive)
same,GI50,SNB-19,11.4 µM (inactive)
same,GI50,SNB-75,7.82 µM (inactive)
same,GI50,SN12C,5.96 µM (inactive)
same,GI50,M14,10.5 µM (inactive)
same,GI50,COLO 205,6.5 µM (inactive)
same,GI50,HOP-18,0.507 µM (active)
same,GI50,DMS-114,8.89 µM (inactive)
same,GI50,DLD-1,5.05 µM (inactive)
same,GI50,HCT-15,6.17 µM
same,GI50,TK-10,9.25 µM (inactive)
same,GI50,OVCAR-5,11 µM (inactive)
same,GI50,SK-MEL-28,15.6 µM (inactive)
same,GI50,Malme-3M,10.4 µM (inactive)
same,GI50,IGROV-1,7.55 µM (inactive)
same,GI50,HT-29,3.74 µM (inactive)
same,GI50,A498,13.3 µM (inactive)
same,GI50,RPMI-8226,2.82 µM (inactive)
same,GI50,SF-268,7.33 µM (inactive)
same,GI50,HCT-116,2.16 µM (inactive)
same,GI50,SK-MEL-5,12.5 µM (inactive)
same,GI50,NCI-H460,3.17 µM (inactive)
same,GI50,SK-OV-3,10.2 µM (inactive)
same,GI50,A549,5.56 µM (inactive)
same,GI50,KM12,3.27 µM (inactive)
